# Test results published in patent US8592421B2, “Cyclic bioisosters of purine system derivatives and a pharmaceutical composition based thereon” (priority 2003, dated 2013).
# Legend:
# plasma hemostasis [1] = experiment: Partial activated thromboplastin time (PATT) after intravenous administration; type: in vivo, rabbit; conditions: for effect on the PATT: doses 15.0, 30.0, 60.0 mg/kg
# Protocol: (§1) The static parameters of the blood and plasma coagulation (partial activated thromboplastin time, thrombin time, maximum coagulation activity (test for auto coagulation) were determined using the Behnk Electronic coagulometer (Germany). The operating principle of this instrument is based on the fact that the formed blood clot breaks the contacts of the pulse counter in the flask-pin circuit, said pin permanently oscillating in a vertical plane. The moment of formation of the clot is registered by stopping the stop watch hand.
# (§2) The measurements were effected at a constant temperature of 37° C. maintained by a temperature control unit.
# plasma hemostasis [2] = experiment: Autocoagulation test (coagulating activity A) after intravenous administration; type: in vivo, rabbit; conditions: for effect on the coagulation activity according to the autocoagulation test: doses 15.0, 30.0, 60.0 mg/kg
# Protocol: The investigations were performed on 72 rabbits of the “Chinchilla” breed with a mass of 2.5±0.3 kg, who were administered which solutions of compounds 2, 15, 21, 37 in doses of 15, 30 and 60 mg/kg intravenously. The experiments included the thrombin-test (series No. 7300) and the coagulability-test (series No. 5000) purchased from the scientific-and-production association (SPA) “Renam”, thromboplastin (series No. 240600) and calcium chloride purchased from the SPA “MedioLab”
# as §1, §2
# Compounds 2, 15, 21, 37 according to the invention at a concentration of 15, 30 and 60 mg/kg were intravenously administered to the above experimental animals and their blood samples were taken off 15, 30, 60 and 120 minutes after the administration.
# Added to 0.2 ml of plasma obtained by centrifuging citrate blood at 1500 rev/min within 10 minutes was a glycosylate-calcium mixture (2.0 ml 0.222% CaCl2+0.1 ml of investigated citrate blood) 4, 6, 8, 10 minutes after the preparation of this mixture and the time of coagulation in the sample was determined.
# The obtained results in seconds were translated in factors of coagulating activity A in percent, which specify the state of both the coagulating and anticoagulating parts of the blood coagulating system. The results of the experiments are given in Table 7. • The effect of the compounds according to the invention on the values of coagulating activity A by the data of autocoagulation test with intravenous administration of the compounds to the rabbits
# [3] = Chronic toxicity of suppositories: indexes of urine; type: in vivo, rats; conditions: rat, in vivo
# Protocol: The experiments were conducted on inbred rats.
# [4] = Chronic toxicity of suppositories: biochemical indexes of blood serum; type: in vivo, rats; conditions: rat, in vivo;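 note: inbred rats dosed rectally with softened suppositories, controls given matching volumes of sterile medical liquid paraffin, serum sampled one month into a two-month dosing course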
# Protocol: Two doses of preparations used in the experiments: 50 mg/kg and 500 mg/kg. Before the administration, the suppositories were softened by heating in a glass water bath at a temperature of 38-39° C., the soft mass was collected in tuberculin syringe in a volume of 1 ml, a needle with oliva was attached to the syringe, and the preparatory mass was introduced into the rectum of the animal for a depth of 1.5-2.0 cm. The animals of the control group were administered with sterile medical liquid paraffin in a volume corresponding to the volume of the investigated suppository. A complete course of administration of drugs to the animals was two months. A complex of laboratory diagnostic investigations was carried out one month after the beginning of the administration of the preparation to the animal—in a middle of the course (8 animals), two months after ending the course (8 animals) and three months after ending the recovery period of one month (8 animals). The mass of the body of the rats in the first month of administration of the preparation was determined weekly, and then once in two weeks. On the basis of the dynamics of an index of the mass of the animal body, the volume of preparation being administered was corrected taking into account the test dose.
# [5] = Morphine abstinence model: thymus condition (mass, nitrites); type: in vivo, rats; conditions: for Nitrites in thymus supernatant: control 0.331 ± 0.041; for Thymus mass: control 230 ± 14
# From the text: The spectrometric method is based the reaction of nitrites with the Griss reagent (a mixture of 2% solution of sulfanilamide and 0.2% N-(1-naphthyl)ethylene diamine. At the first step the nitrite reacts with sulfanilamide with formation of diazonium salt, and then with the second component to form azo dye with an adsorption maximum at 540 nm. For reduction of nitrates into nitrites, a fermentative method was used with bacterial reductase nitrate (Grisham M. B. et al., 1995). The samples of plasma and supernathant of the liver deproteinizated at 100° C. for 5 minutes incubated for 30 minutes at 37° C. in 50.0 mM of HEPES pH 7.4 in the presence of 0.2 unit/ml of Aspergillus reductase nitrate, 5.0 mkM of FAD and 0.1 mM of NAD-Ph. At the end of the reaction lactate dehydrogenase and pyruvate were added for isolation of NAD-Ph interfering with the Griss reaction. Then the Griss reagent was added and after 10-minute incubation the light absorption of the samples was measured at 540 nm. To amount of NOX^− was calculated using sodium nitrate as a standard.
# The effect of the compounds according to the invention on the condition of the thymus of the rats was also investigated: a control group, an experimental group of morphinized animals and an experimental group of animals were first morphinized and then injected with the compounds according to the invention. The experiment was carried out similarly to that described above.
# [6] = 15.0 mg/kg intravenously, after 15 minutes, control 37.0 ± 0.2
# [7] = 15.0 mg/kg intravenously, after 30 minutes, control 37.0 ± 0.2
# [8] = 15.0 mg/kg intravenously, after 60 minutes, control 37.0 ± 0.2
# [9] = 15.0 mg/kg intravenously, after 120 minutes, control 37.0 ± 0.2
# [10] = 30.0 mg/kg intravenously, after 15 minutes, control 33.3 ± 0.8
# [11] = 30.0 mg/kg intravenously, after 30 minutes, control 33.3 ± 0.8
# [12] = 30.0 mg/kg intravenously, after 60 minutes, control 33.3 ± 0.8
# [13] = 30.0 mg/kg intravenously, after 120 minutes, control 33.3 ± 0.8
# [14] = 60.0 mg/kg intravenously, after 15 minutes, control 32.5 ± 0.3
# [15] = 60.0 mg/kg intravenously, after 30 minutes, control 32.5 ± 0.3
# [16] = 60.0 mg/kg intravenously, after 60 minutes, control 32.5 ± 0.3
# [17] = 60.0 mg/kg intravenously, after 120 minutes, control 32.5 ± 0.3
# [18] = 15.0 mg/kg intravenously, after 15 minutes, control 85.6
# [19] = 15.0 mg/kg intravenously, after 30 minutes, control 85.6
# [20] = 15.0 mg/kg intravenously, after 60 minutes, control 85.6
# [21] = 15.0 mg/kg intravenously, after 120 minutes, control 85.6
# [22] = 30.0 mg/kg intravenously, after 15 minutes, control 70.0
# [23] = 30.0 mg/kg intravenously, after 30 minutes, control 70.0
# [24] = 30.0 mg/kg intravenously, after 60 minutes, control 70.0
# [25] = 30.0 mg/kg intravenously, after 120 minutes, control 70.0
# [26] = 60.0 mg/kg intravenously, after 15 minutes, control 65.9
# [27] = 60.0 mg/kg intravenously, after 30 minutes, control 65.9
# [28] = 60.0 mg/kg intravenously, after 60 minutes, control 65.9
# [29] = 60.0 mg/kg intravenously, after 120 minutes, control 65.9
# [30] = Administration of morphine and compound
structure (smiles),measurement,setting,value
"Nc1ccnc2c(=O)n([C@@H]3O[C@H](CO)[C@@H](O)[C@H]3O)[nH]c(=O)c12 [Compound 2, 4-amino-7-(β-D-ribofuranosile)pyrido[2,3-d]-6H-pyridazine-5,8-dione]","PATT, T",plasma hemostasis [1]; [6],37.0 ± 0.1 s
same,"PATT, T",plasma hemostasis [1]; [7],37.0 ± 0.2 s
same,"PATT, T",plasma hemostasis [1]; [8],36.9 ± 0.1 s
same,"PATT, T",plasma hemostasis [1]; [9],37.0 ± 0.3 s
same,"PATT, T",plasma hemostasis [1]; [10],32.7 ± 0.5 s
same,"PATT, T",plasma hemostasis [1]; [11],32.0 ± 0.1 s
same,"PATT, T",plasma hemostasis [1]; [12],32.2 ± 0.1 s
same,"PATT, T",plasma hemostasis [1]; [13],32.1 ± 0.2 s
same,"PATT, T",plasma hemostasis [1]; [14],32.3 ± 0.2 s
same,"PATT, T",plasma hemostasis [1]; [15],32.4 ± 0.1 s
same,"PATT, T",plasma hemostasis [1]; [16],32.3 ± 0.1 s
same,"PATT, T",plasma hemostasis [1]; [17],32.4 ± 0.1 s
same,effect on the PATT,plasma hemostasis [1],do not affect the PATT
same,coagulating activity A (autocoagulation test),plasma hemostasis [2]; [18],80.2%
same,coagulating activity A (autocoagulation test),plasma hemostasis [2]; [19],100.0%
same,coagulating activity A (autocoagulation test),plasma hemostasis [2]; [20],87.4%
same,coagulating activity A (autocoagulation test),plasma hemostasis [2]; [21],98.0%
same,coagulating activity A (autocoagulation test),plasma hemostasis [2]; [22],98.4%
same,coagulating activity A (autocoagulation test),plasma hemostasis [2]; [23],71.2%
same,coagulating activity A (autocoagulation test),plasma hemostasis [2]; [24],104.2%
same,coagulating activity A (autocoagulation test),plasma hemostasis [2]; [25],70.9%
same,coagulating activity A (autocoagulation test),plasma hemostasis [2]; [26],72.3%
same,coagulating activity A (autocoagulation test),plasma hemostasis [2]; [27],60.8%
same,coagulating activity A (autocoagulation test),plasma hemostasis [2]; [28],62.5%
same,coagulating activity A (autocoagulation test),plasma hemostasis [2]; [29],65.7%
same,effect on the coagulation activity according to the autocoagulation test,plasma hemostasis [2],have no effect on the coagulation activity
same,Bilirubin (urine),[3]; 50 mg/kg,<5 Mkmol/l
same,Glucose (urine),[3]; 50 mg/kg,<5 mmol/L
same,Ketone bodies (urine),[3]; 50 mg/kg,<1 mmol/L
same,Potassium (urine),[3]; 50 mg/kg,5.78 ± 1.7 g/L
same,Protein (urine),[3]; 50 mg/kg,0.69 ± 0.33 g/L
same,Sodium (urine),[3]; 50 mg/kg,1.7 ± 0.3 g/L
same,Urea (urine),[3]; 50 mg/kg,457 ± 144 mmol/L
same,Urobilinogen (urine),[3]; 50 mg/kg,<16 Mkmol/l
same,pH (urine),[3]; 50 mg/kg,6.1 ± 0.3
same,Bilirubin (urine),[3]; 500 mg/kg,<5 Mkmol/l
same,Glucose (urine),[3]; 500 mg/kg,<5 mmol/L
same,Ketone bodies (urine),[3]; 500 mg/kg,<1 mmol/L
same,Potassium (urine),[3]; 500 mg/kg,6.24 ± 1.8 g/L
same,Protein (urine),[3]; 500 mg/kg,0.76 ± 0.31 g/L
same,Sodium (urine),[3]; 500 mg/kg,1.27 ± 0.3 g/L
same,Urea (urine),[3]; 500 mg/kg,492 ± 187 mmol/L
same,Urobilinogen (urine),[3]; 500 mg/kg,<16 Mkmol/l
same,pH (urine),[3]; 500 mg/kg,6.2 ± 0.2
same,ALT in blood serum,[4]; 50 mg/kg,10.84 ± 2.02 unit/l
same,AST in blood serum,[4]; 50 mg/kg,20.41 ± 3.06 unit/1
same,Alkalinous phosphatase in blood serum,[4]; 50 mg/kg,42.12 ± 4.23 unit/l
same,Bilirubin in blood serum,[4]; 50 mg/kg,44.38 ± 4.12 mmol/L
same,Cholesterol in blood serum,[4]; 50 mg/kg,2.77 ± 0.71 mmol/L
same,Creatinine in blood serum,[4]; 50 mg/kg,47.38 ± 3.26 mkmol/l
same,Glucose in blood serum,[4]; 50 mg/kg,9.85 ± 0.37 mM
same,Total protein in blood serum,[4]; 50 mg/kg,87.34 ± 5.56 g/L
same,Urea in blood serum,[4]; 50 mg/kg,11.02 ± 0.73 Mkmol/l
same,ALT in blood serum,[4]; 500 mg/kg,11.23 ± 1.70 unit/l
same,AST in blood serum,[4]; 500 mg/kg,20.13 ± 2.95 unit/1
same,Alkalinous phosphatase in blood serum,[4]; 500 mg/kg,43.4 ± 2.12 unit/l
same,Bilirubin in blood serum,[4]; 500 mg/kg,42.56 ± 7.56 mmol/L
same,Cholesterol in blood serum,[4]; 500 mg/kg,2.96 ± 0.52 mmol/L
same,Creatinine in blood serum,[4]; 500 mg/kg,49.87 ± 8.12 mkmol/l
same,Glucose in blood serum,[4]; 500 mg/kg,10.2 ± 0.74 mM
same,Total protein in blood serum,[4]; 500 mg/kg,70.84 ± 7.47 g/L
same,Urea in blood serum,[4]; 500 mg/kg,11.30 ± 0.80 Mkmol/l
"O=c1[nH][nH]c(=O)c2ncccc12.[Li] [Compound 6, lithium salt of pyrido[2,3-d]-6H-pyridazine-5,8-dione]",Nitrites in thymus supernatant,[5]; Administration of compounds,0.424 ± 0.04 nmol/mg of protein
same,Thymus mass,[5]; Administration of compounds,242 ± 17 mg
same,Nitrites in thymus supernatant,[5]; [30],0.419 ± 0.02 nmol/mg of protein
same,Thymus mass,[5]; [30],207 ± 14 mg
"Nc1cnc2c(=O)n([C@@H]3O[C@H](CO)[C@@H](O)[C@H]3O)[nH]c(=O)c2n1.[Na] [Compound 21, sodium salt of 3-amino-7-(β-D-ribofuranosile)pyrazine[2,3-d]-6H-pyridazine-5,8-dione]","PATT, T",plasma hemostasis [1]; [6],37.1 ± 0.1 s
same,"PATT, T",plasma hemostasis [1]; [7],37.2 ± 0.1 s
same,"PATT, T",plasma hemostasis [1]; [8],36.9 ± 0.1 s
same,"PATT, T",plasma hemostasis [1]; [9],37.0 ± 0.2 s
same,"PATT, T",plasma hemostasis [1]; [10],32.8 ± 0.4 s
same,"PATT, T",plasma hemostasis [1]; [11],32.0 ± 0.1 s
same,"PATT, T",plasma hemostasis [1]; [12],32.2 ± 0.1 s
same,"PATT, T",plasma hemostasis [1]; [13],32.1 ± 0.1 s
same,"PATT, T",plasma hemostasis [1]; [14],32.0 ± 0.4 s
same,"PATT, T",plasma hemostasis [1]; [15],32.1 ± 0.2 s
same,"PATT, T",plasma hemostasis [1]; [16],32.0 ± 0.1 s
same,"PATT, T",plasma hemostasis [1]; [17],32.3 ± 0.2 s
same,effect on the PATT,plasma hemostasis [1],do not affect the PATT
same,coagulating activity A (autocoagulation test),plasma hemostasis [2]; [18],81.4%
same,coagulating activity A (autocoagulation test),plasma hemostasis [2]; [19],101.3%
same,coagulating activity A (autocoagulation test),plasma hemostasis [2]; [20],86.5%
same,coagulating activity A (autocoagulation test),plasma hemostasis [2]; [21],97.4%
same,coagulating activity A (autocoagulation test),plasma hemostasis [2]; [22],97.2%
same,coagulating activity A (autocoagulation test),plasma hemostasis [2]; [23],69.1%
same,coagulating activity A (autocoagulation test),plasma hemostasis [2]; [24],103.7%
same,coagulating activity A (autocoagulation test),plasma hemostasis [2]; [25],71.0%
same,coagulating activity A (autocoagulation test),plasma hemostasis [2]; [26],71.9%
same,coagulating activity A (autocoagulation test),plasma hemostasis [2]; [27],62.1%
same,coagulating activity A (autocoagulation test),plasma hemostasis [2]; [28],63.7%
same,coagulating activity A (autocoagulation test),plasma hemostasis [2]; [29],66.2%
same,effect on the coagulation activity according to the autocoagulation test,plasma hemostasis [2],have no effect on the coagulation activity
"O=c1[nH][nH]c(=O)c2nccnc12.[Li] [Compound 25, lithium salt of pyrazine[2,3-d]-6H-pyridazine-5,8-dione]",Nitrites in thymus supernatant,[5]; Administration of compounds,0.417 ± 0.02 nmol/mg of protein
same,Thymus mass,[5]; Administration of compounds,254 ± 14 mg
same,Nitrites in thymus supernatant,[5]; [30],0.396 ± 0.02 nmol/mg of protein
same,Thymus mass,[5]; [30],218 ± 17 mg
